According to ChEMBL document CHEMBL1157112, “Discovery of anti-inflammatory clinical candidate E6201, inspired from resorcylic lactone LL-Z1640-2, III” (Bioorg Med Chem Lett, 2010):
Each block holds one compound with its values, some of them ahead of it.

Key:
THP-1 = experiment: Antiinflammatory activity in human THP1 cells assessed as inhibition of LPS-induced TNFalpha production by PLAP reporter assay; assay type: functional, cell-based
[1] = Oral bioavailability in mouse; assay type: ADME, organism-based; details: in vivo
Mus musculus [2] = experiment: Antiarthritic activity in po dosed BALB/c mouse collagen antibody induced arthritis model assessed as inhibition of increase of arthritis score administered qd for 2 days after collagen antibody challenge measured after 2 days; assay type: functional; details: 48 h
[3] = Toxicity in po dosed BALB/c mouse collagen antibody induced arthritis model assessed as tolerated dose; assay type: organism-based; details: in vivo
Mus musculus [4] = species: Mus musculus; experiment: Ratio of ED50 for BALB/c mouse collagen antibody induced arthritis model to tolerated dose for BALB/c mouse collagen antibody induced arthritis model; assay type: functional
[5] = Antiinflammatory activity in human B164 cells assessed as inhibition of LPS-induced Actin production by PLAP reporter assay; assay type: functional

SMILES: CCNc1cc(O)c2c(c1)/C=C/C[C@H](O)[C@H](O)C(=O)/C=C\[C@@H](C)[C@H](C)OC2=O [E-6201]
IC50 (THP-1): 56 nM
bioavailability [1]: 12%
ED50 (Mus musculus [2]): 5 mg/kg
MTD [3]: > 30 mg/kg
Ratio (Mus musculus [4]): 3

IC50 (THP-1): 71 nM
SMILES: C[C@@H]1/C=C\C(=O)[C@@H](O)[C@@H](O)C/C=C/c2cc(NCCO)cc(O)c2C(=O)O[C@H]1C

IC50 (THP-1): 360 nM
bioavailability [1]: 49%
SMILES: C[C@@H]1/C=C\C(=O)[C@@H](O)[C@@H](O)C/C=C/c2cc(N)cc(O)c2C(=O)O[C@H]1C

IC50 (THP-1): 351 nM
SMILES: C[C@@H]1/C=C\C(=O)[C@@H](O)[C@@H](O)C/C=C/c2cc(N3CCNCC3)cc(O)c2C(=O)O[C@H]1C

SMILES: C[C@@H]1/C=C\C(=O)[C@@H](O)[C@@H](O)C/C=C/c2cc(N(C)C)cc(O)c2C(=O)O[C@H]1C
IC50 (THP-1): 437 nM
bioavailability [1]: 21%
ED50 (Mus musculus [2]): 15 mg/kg
MTD [3]: 60 mg/kg
Ratio (Mus musculus [4]): 4

IC50 (THP-1): 129 nM
bioavailability [1]: 48%
SMILES: C[C@@H]1/C=C\C(=O)[C@@H](O)[C@@H](O)C/C=C/c2cc(N3CCOCC3)cc(O)c2C(=O)O[C@H]1C

IC50 (THP-1): 2070 nM
SMILES: CCN(CC)c1cc(O)c2c(c1)/C=C/C[C@H](O)[C@H](O)C(=O)/C=C\[C@@H](C)[C@H](C)OC2=O

SMILES: C[C@]12C=CC(=O)C=C1CC[C@@H]1[C@@H]2[C@@H](O)C[C@@]2(C)[C@H]1CC[C@]2(O)C(=O)CO [PREDNISOLONE]
ED50 (Mus musculus [2]): 3 mg/kg
MTD [3]: 10 mg/kg
Ratio (Mus musculus [4]): 3

SMILES: COc1ccc2c(c1)c(CC(=O)O)c(C)n2C(=O)c1ccc(Cl)cc1 [INDOMETHACIN]
ED50 (Mus musculus [2]): 1 mg/kg
MTD [3]: 3 mg/kg
Ratio (Mus musculus [4]): 3

SMILES: Cc1nc2c3c(c(O)cc2n1C)C(=O)O[C@@H](C)[C@H](C)/C=C\C(=O)[C@@H](O)[C@@H](O)C/C=C/3
IC50 (THP-1): 108 nM
Activity [5]: >10 µM
ED50 (Mus musculus [2]): 10 mg/kg
MTD [3]: < 10 mg/kg
Ratio (Mus musculus [4]): 1

SMILES: C[C@@H]1/C=C\C(=O)[C@@H](O)[C@@H](O)C/C=C/c2c(c(O)cc3c2ncn3C)C(=O)O[C@H]1C
IC50 (THP-1): 23 nM
Activity [5]: >10 µM
bioavailability [1]: 49%
ED50 (Mus musculus [2]): 5 mg/kg
MTD [3]: < 5 mg/kg
Ratio (Mus musculus [4]): 1

SMILES: CCn1cnc2c3c(c(O)cc21)C(=O)O[C@@H](C)[C@H](C)/C=C\C(=O)[C@@H](O)[C@@H](O)C/C=C/3
IC50 (THP-1): 43 nM
Activity [5]: >10 µM
ED50 (Mus musculus [2]): 10 mg/kg
MTD [3]: < 10 mg/kg
Ratio (Mus musculus [4]): 1

IC50 (THP-1): 26 nM
SMILES: CCCNc1cc(O)c2c(c1)/C=C/C[C@H](O)[C@H](O)C(=O)/C=C\[C@@H](C)[C@H](C)OC2=O

SMILES: CNc1cc(O)c2c(c1)/C=C/C[C@H](O)[C@H](O)C(=O)/C=C\[C@@H](C)[C@H](C)OC2=O
IC50 (THP-1): 85 nM
bioavailability [1]: 29%
ED50 (Mus musculus [2]): 5 mg/kg
MTD [3]: > 30 mg/kg
Ratio (Mus musculus [4]): 6

IC50 (THP-1): 1250 nM
SMILES: C[C@@H]1/C=C\C(=O)[C@@H](O)[C@@H](O)C/C=C/c2cc(NCc3ccccc3)cc(O)c2C(=O)O[C@H]1C
